# Key:
# circulating tumor cells = assay: Flow cytometry identification and enumeration of circulating tumor cells in mononuclear cells from cancer patients' whole blood stained with CLR1501; format: cell-based, human; conditions: for CK−/EpCAM−/CLR1501+ cells (number): CD45−, CD14−, CD34−, nucleated
# Description: (§1) Whole blood was collected in either Cell Save® collection tubes or ethylenediaminetetraacetic acid (“EDTA”) collection tubes from seven cancer patients with lung (patients 101 and 103), thyroid (patient 102), breast (patient 106), cervical (patient 104), squamous cell carcinoma (107), and colorectal (patient 108) cancer prior to (draw 1) and after (draw 2) therapy, when available. Mononuclear cells were isolated from the whole blood using a Ficoll-Paque density gradient. Cells from each patient were then incubated with an Fc blocker. The cells were then stained with fluorescently-tagged antibodies to CD45, CD14, CD34, EpCAM, and pan-Cytokeratin (CK), and a fluorescent PLE analog (“CLR1501”) for 30 minutes. Cells were then analyzed by flow cytometry to indicate the number of cells from each whole blood sample that were positive and/or negative for a particular marker. According to the current definition, CTCs were identified as live cells that were CD45−, CD14−, CD34−, CK+, and EpCAM+ (“by definition”). Due to prior experience with CD14+ monocytes/macrophages (FIG. 1), CD14+ cells were removed from the analyses due to high uptake of CLR1501. CD34+ normal […] cells were also removed from the analyses.
# The first row of Tables 1 and 2 depicts the number of cells from each patient's blood draw that fulfilled the definition of a CTC: CD45−, CD14−, CD34−, CK+, and EpCAM+, and contained a nucleus. The second row depicts the number of cells from each patient's blood draw that were CD45−, CD14−, CD34−, CK+, and contained a nucleus. The third row depicts the number of cells from each patient's blood draw that were CLR 1501+, CD45−, CD14−, CD34−, CK+, and contained a nucleus. The fourth row depicts the number of cells from each patient's blood draw that were CD45−, CD14−, CD34−, and EpCAM+ and contained a nucleus. The fifth row depicts the number of cells from each patient's blood draw that were CLR 1501+, CD45−, CD14−, CD34−, and EpCAM+ and contained a nucleus. The sixth row depicts the number of cells from each patient's blood draw that were CLR 1501+, CD45−, CD14−, CD34−, CK−, and EpCAM−, and contained a nucleus.
# CD45+ and CD34+ cells = assay: Flow cytometry uptake of CLR1501 in remaining CD45+ and CD34+ cells of patient blood; format: cell-based, human; conditions: same patient, in comparison with CD14+ cells
# Description: as §1
# [1] = test system: CD14+ monocytes/macrophages; assay: Flow cytometry uptake of CLR1501 in CD14+ cells of patient blood (FIG. 1); format: cell-based, human
# Description: FIG. 1. […] Upper left quadrant indicates CD14−/CLR1501+ cells, upper right indicates CD14+/CLR1501+, bottom right indicates CD14+/CLR1501−, and bottom left indicates CD14−/CLR1501.
# Whole blood was collected in either Cell Save® collection tubes or ethylenediaminetetraacetic acid (“EDTA”) collection tubes from seven cancer patients with lung (patients 101 and 103), thyroid (patient 102), breast (patient 106), cervical (patient 104), squamous cell carcinoma (107), and colorectal (patient 108) cancer prior to (draw 1) and after (draw 2) therapy, when available. Mononuclear cells were isolated from the whole blood using a Ficoll-Paque density gradient. Cells from each patient were then incubated with an Fc blocker. The cells were then stained with fluorescently-tagged antibodies to CD45, CD14, CD34, EpCAM, and pan-Cytokeratin (CK), and a fluorescent PLE analog (“CLR1501”) for 30 minutes. Cells were then analyzed by flow cytometry to indicate the number of cells from each whole blood sample that were positive and/or negative for a particular marker. According to the current definition, CTCs were identified as live cells that were CD45−, CD14−, CD34−, CK+, and EpCAM+ (“by definition”). Due to prior experience with CD14+ monocytes/macrophages (FIG. 1), CD14+ cells were removed from the analyses due to high uptake of CLR1501. CD34+ normal […] cells were also removed from the analyses. […]
# [2] = test system: xenograft and spontaneous tumor models; conditions: over 55 xenograft and spontaneous tumor models; cited from earlier work
smiles,measurement,setting,value
C[N+](C)(C)CCOP(=O)([O-])OCCCCCCCCCCCCCCCCCCc1ccc(C2=C3C=CC=[N+]3[B-](F)(F)n3cccc32)cc1 [CLR1501],CK−/EpCAM−/CLR1501+ cells (number),"circulating tumor cells; Cell Save tube, patient 101 draw 1, lung cancer",1.4 M
same,CK−/EpCAM−/CLR1501+ cells (number),"circulating tumor cells; Cell Save tube, patient 101 draw 2, lung cancer","121,696 cells"
same,CK−/EpCAM−/CLR1501+ cells (number),"circulating tumor cells; Cell Save tube, patient 102 draw 1, thyroid cancer",6.7 M
same,CK−/EpCAM−/CLR1501+ cells (number),"circulating tumor cells; Cell Save tube, patient 102 draw 2, thyroid cancer",7.9 M
same,CK−/EpCAM−/CLR1501+ cells (number),"circulating tumor cells; Cell Save tube, patient 103, lung cancer",5.3 M
same,CK−/EpCAM−/CLR1501+ cells (number),"circulating tumor cells; Cell Save tube, patient 104 draw 1, cervical cancer",1.3 M
same,CK−/EpCAM−/CLR1501+ cells (number),"circulating tumor cells; Cell Save tube, patient 106, breast cancer",278 cells
same,CK−/EpCAM−/CLR1501+ cells (number),"circulating tumor cells; Cell Save tube, patient 107, carcinoma","611,622 cells"
same,CK−/EpCAM−/CLR1501+ cells (number),"circulating tumor cells; Cell Save tube, patient 108 draw 1, colorectal cancer","1,062 cells"
same,CK−/EpCAM−/CLR1501+ cells (number),"circulating tumor cells; Cell Save tube, patient 108 draw 2, colorectal cancer",1.1 M
same,CK−/EpCAM−/CLR1501+ cells (number),"circulating tumor cells; EDTA tube, patient 101 draw 1, lung cancer",1.8 M
same,CK−/EpCAM−/CLR1501+ cells (number),"circulating tumor cells; EDTA tube, patient 101 draw 2, lung cancer","30,222 cells"
same,CK−/EpCAM−/CLR1501+ cells (number),"circulating tumor cells; EDTA tube, patient 102 draw 1, thyroid cancer",1.5 M
same,CK−/EpCAM−/CLR1501+ cells (number),"circulating tumor cells; EDTA tube, patient 102 draw 2, thyroid cancer",10.9 M
same,CK−/EpCAM−/CLR1501+ cells (number),"circulating tumor cells; EDTA tube, patient 103, lung cancer",2.5 M
same,CK−/EpCAM−/CLR1501+ cells (number),"circulating tumor cells; EDTA tube, patient 104, cervical cancer",4.0 M
same,CK−/EpCAM−/CLR1501+ cells (number),"circulating tumor cells; EDTA tube, patient 106, breast cancer","19,585 cells"
same,CK−/EpCAM−/CLR1501+ cells (number),"circulating tumor cells; EDTA tube, patient 107, carcinoma","147,641 cells"
same,CK−/EpCAM−/CLR1501+ cells (number),"circulating tumor cells; EDTA tube, patient 108 draw 1, colorectal cancer","29,584 cells"
same,CK−/EpCAM−/CLR1501+ cells (number),"circulating tumor cells; EDTA tube, patient 108 draw 2, colorectal cancer","753,387 cells"
same,CK+ cells identified by CLR 1501,"circulating tumor cells; all cancer types, either blood collection tube, listed as 2 vs row 3 of Table 1 or 2",99-100%
same,EpCAM+ cells identified by CLR 1501,"circulating tumor cells; all cancer types, either blood collection tube, listed as 4 vs row 5 of Table 1 or 2",35-100%
same,uptake of CLR1501 by CTCs (by definition),circulating tumor cells; all seven patient samples,positive uptake
same,uptake of CLR1501 by remaining CD45+ and CD34+ cells,CD45+ and CD34+ cells,not take up CLR1501 to a large extent
same,uptake of CLR1501 in CD14+ cells,"[1]; CD14+ monocytes/macrophages, FIG. 1",high uptake
same,cells positive for CD14+ that are also positive for CLR1501,"[1]; CD45−, CD34− cells from patient 108 (colorectal cancer), FIG. 1 panel B",99.7%
C[N+](C)(C)CCOP(=O)([O-])OCCCCCCCCCCCCCCCCCCc1ccc(I)cc1 [CLR1404],uptake and retention in tumors,[2],selective uptake and prolonged retention in tumors

# — patent publication US11467159B2, “Luminescent phospholipid analogs for the identification and isolation of circulating tumor cells” (CELLECTAR BIOSCIENCES, INC., priority 2016, dated 2022)
